From PubChem BioAssay (NCI)
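Where inhibition never reached the appropriate level, the endpoint shown equals the highest concentration tested. Otherwise, values were interpolated linearly from a five-concentration, 48-hour dose response in 96-well plates. At the TGI there is no net growth.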

Columns and labels:
Test in all cases: NCI tumour cell line growth inhibition, 48 h
786-0 renal = tested on: 786-0 renal
A498 renal = tested on: A498 renal
A549 NSCLC = tested on: A549 NSCLC
ACHN renal = tested on: ACHN renal
CAKI-1 renal = tested on: CAKI-1 renal
COLO 205 colon = tested on: COLO 205 colon
DMS 114 small cell lung = tested on: DMS 114 small cell lung
DMS 273 small cell lung = tested on: DMS 273 small cell lung
EKVX NSCLC = tested on: EKVX NSCLC
HCC-2998 colon = tested on: HCC-2998 colon
HCT-116 colon = tested on: HCT-116 colon
HCT-15 colon = tested on: HCT-15 colon
HL-60(TB) leukemia = tested on: HL-60(TB) leukemia
HOP-62 NSCLC = tested on: HOP-62 NSCLC
HT29 colon = tested on: HT29 colon
IGROV1 ovarian = tested on: IGROV1 ovarian
K-562 leukemia = tested on: K-562 leukemia
KM12 colon = tested on: KM12 colon
KM20L2 colon = tested on: KM20L2 colon
LOX IMVI melanoma = tested on: LOX IMVI melanoma
M14 melanoma = tested on: M14 melanoma
M19-MEL melanoma = tested on: M19-MEL melanoma
MALME-3M melanoma = tested on: MALME-3M melanoma
MOLT-4 leukemia = tested on: MOLT-4 leukemia
NCI-H226 lung = tested on: NCI-H226 lung
NCI-H23 lung = tested on: NCI-H23 lung
NCI-H460 lung = tested on: NCI-H460 lung
OVCAR-3 ovarian = tested on: OVCAR-3 ovarian
OVCAR-4 ovarian = tested on: OVCAR-4 ovarian
OVCAR-5 ovarian = tested on: OVCAR-5 ovarian
OVCAR-8 ovarian = tested on: OVCAR-8 ovarian
RPMI-8226 leukemia = tested on: RPMI-8226 leukemia
RXF 393 renal = tested on: RXF 393 renal
SF-268 CNS = tested on: SF-268 CNS
SF-295 CNS = tested on: SF-295 CNS
SF-539 CNS = tested on: SF-539 CNS
SK-MEL-2 melanoma = tested on: SK-MEL-2 melanoma
SK-MEL-28 melanoma = tested on: SK-MEL-28 melanoma
SK-MEL-5 melanoma = tested on: SK-MEL-5 melanoma
SK-OV-3 ovarian = tested on: SK-OV-3 ovarian
SN12C renal = tested on: SN12C renal
SNB-75 CNS = tested on: SNB-75 CNS
SNB-78 CNS = tested on: SNB-78 CNS
SR leukemia = tested on: SR leukemia
SW-620 colon = tested on: SW-620 colon
TK-10 renal = tested on: TK-10 renal
U251 CNS = tested on: U251 CNS
UACC-257 melanoma = tested on: UACC-257 melanoma
XF 498 CNS = tested on: XF 498 CNS
DLD-1 colon = tested on: DLD-1 colon
HOP-92 NSCLC = tested on: HOP-92 NSCLC
LXFL 529 NSCLC = tested on: LXFL 529 NSCLC
NCI-H522 lung = tested on: NCI-H522 lung
SNB-19 CNS = tested on: SNB-19 CNS
UO-31 renal = tested on: UO-31 renal
UACC-62 melanoma = tested on: UACC-62 melanoma

Cc1ccc(C=NC23CC4CC(CC(C4)C2)C3)cc1
TGI (786-0 renal): > 100 µM | TGI (A498 renal): > 100 µM | TGI (A549 NSCLC): > 100 µM | TGI (ACHN renal): > 100 µM | TGI (CAKI-1 renal): > 100 µM | TGI (COLO 205 colon): > 100 µM | TGI (DMS 114 small cell lung): > 100 µM | TGI (DMS 273 small cell lung): > 100 µM | TGI (EKVX NSCLC): > 100 µM | TGI (HCC-2998 colon): > 100 µM | TGI (HCT-116 colon): > 100 µM | TGI (HCT-15 colon): > 100 µM | TGI (HL-60(TB) leukemia): > 100 µM | TGI (HOP-62 NSCLC): > 100 µM | TGI (HT29 colon): > 100 µM | TGI (IGROV1 ovarian): > 100 µM | TGI (K-562 leukemia): > 100 µM | TGI (KM12 colon): > 100 µM | TGI (KM20L2 colon): > 100 µM | TGI (LOX IMVI melanoma): > 100 µM | TGI (M14 melanoma): > 100 µM | TGI (M19-MEL melanoma): > 100 µM | TGI (MALME-3M melanoma): > 100 µM | TGI (MOLT-4 leukemia): > 100 µM | TGI (NCI-H226 lung): > 100 µM | TGI (NCI-H23 lung): > 100 µM | TGI (NCI-H460 lung): > 100 µM | TGI (OVCAR-3 ovarian): > 100 µM | TGI (OVCAR-4 ovarian): > 100 µM | TGI (OVCAR-5 ovarian): > 100 µM | TGI (OVCAR-8 ovarian): > 100 µM | TGI (RPMI-8226 leukemia): > 100 µM | TGI (RXF 393 renal): > 100 µM | TGI (SF-268 CNS): > 100 µM | TGI (SF-295 CNS): > 100 µM | TGI (SF-539 CNS): > 100 µM | TGI (SK-MEL-2 melanoma): > 100 µM | TGI (SK-MEL-28 melanoma): > 100 µM | TGI (SK-MEL-5 melanoma): > 100 µM | TGI (SK-OV-3 ovarian): > 100 µM | TGI (SN12C renal): > 100 µM | TGI (SNB-75 CNS): > 100 µM | TGI (SNB-78 CNS): > 100 µM | TGI (SR leukemia): > 100 µM | TGI (SW-620 colon): > 100 µM | TGI (TK-10 renal): > 100 µM | TGI (U251 CNS): > 100 µM | TGI (UACC-257 melanoma): > 100 µM | TGI (XF 498 CNS): > 100 µM

CC(NC(=O)C(=O)N/N=C1\C[C@@H](c2ccccc2)Nc2ccccc21)c1ccccc1 (some centres undefined)
TGI (786-0 renal): > 100 µM | TGI (A549 NSCLC): > 100 µM | TGI (ACHN renal): > 100 µM | TGI (CAKI-1 renal): > 100 µM | TGI (COLO 205 colon): > 100 µM | TGI (DLD-1 colon): > 100 µM | TGI (DMS 114 small cell lung): > 100 µM | TGI (DMS 273 small cell lung): > 100 µM | TGI (EKVX NSCLC): > 100 µM | TGI (HCC-2998 colon): > 100 µM | TGI (HCT-116 colon): > 100 µM | TGI (HL-60(TB) leukemia): > 100 µM | TGI (HOP-62 NSCLC): > 100 µM | TGI (HOP-92 NSCLC): > 100 µM | TGI (HT29 colon): > 100 µM | TGI (KM12 colon): > 100 µM | TGI (KM20L2 colon): > 100 µM | TGI (LOX IMVI melanoma): > 100 µM | TGI (LXFL 529 NSCLC): > 100 µM | TGI (M14 melanoma): > 100 µM | TGI (M19-MEL melanoma): > 100 µM | TGI (MALME-3M melanoma): 99.6 µM | TGI (NCI-H226 lung): > 100 µM | TGI (NCI-H23 lung): > 100 µM | TGI (NCI-H460 lung): > 100 µM | TGI (NCI-H522 lung): > 100 µM | TGI (OVCAR-3 ovarian): > 100 µM | TGI (OVCAR-4 ovarian): > 100 µM | TGI (OVCAR-5 ovarian): > 100 µM | TGI (OVCAR-8 ovarian): > 100 µM | TGI (RXF 393 renal): > 100 µM | TGI (SF-268 CNS): > 100 µM | TGI (SF-295 CNS): > 100 µM | TGI (SF-539 CNS): > 100 µM | TGI (SK-MEL-2 melanoma): > 100 µM | TGI (SK-MEL-28 melanoma): > 100 µM | TGI (SN12C renal): > 100 µM | TGI (SNB-19 CNS): > 100 µM | TGI (SNB-75 CNS): > 100 µM | TGI (SNB-78 CNS): > 100 µM | TGI (SW-620 colon): > 100 µM | TGI (TK-10 renal): > 100 µM | TGI (U251 CNS): > 100 µM | TGI (UACC-257 melanoma): > 100 µM | TGI (UO-31 renal): > 100 µM | TGI (XF 498 CNS): > 100 µM

CS(=O)(=O)N(CCC#N)c1ccc(C=O)cc1
TGI (786-0 renal): > 100 µM | TGI (A498 renal): > 100 µM | TGI (A549 NSCLC): > 100 µM | TGI (ACHN renal): > 100 µM | TGI (CAKI-1 renal): > 100 µM | TGI (DMS 114 small cell lung): > 100 µM | TGI (DMS 273 small cell lung): > 100 µM | TGI (EKVX NSCLC): > 100 µM | TGI (HCC-2998 colon): > 100 µM | TGI (HCT-116 colon): > 100 µM | TGI (HCT-15 colon): > 100 µM | TGI (HL-60(TB) leukemia): > 100 µM | TGI (HOP-62 NSCLC): > 100 µM | TGI (HT29 colon): > 100 µM | TGI (IGROV1 ovarian): > 100 µM | TGI (K-562 leukemia): > 100 µM | TGI (KM12 colon): > 100 µM | TGI (KM20L2 colon): > 100 µM | TGI (LOX IMVI melanoma): > 100 µM | TGI (LXFL 529 NSCLC): > 100 µM | TGI (M14 melanoma): > 100 µM | TGI (M19-MEL melanoma): > 100 µM | TGI (MALME-3M melanoma): > 100 µM | TGI (MOLT-4 leukemia): > 100 µM | TGI (NCI-H226 lung): > 100 µM | TGI (NCI-H460 lung): > 100 µM | TGI (NCI-H522 lung): > 100 µM | TGI (OVCAR-3 ovarian): > 100 µM | TGI (OVCAR-4 ovarian): > 100 µM | TGI (OVCAR-5 ovarian): > 100 µM | TGI (OVCAR-8 ovarian): > 100 µM | TGI (RPMI-8226 leukemia): > 100 µM | TGI (SF-268 CNS): > 100 µM | TGI (SF-295 CNS): > 100 µM | TGI (SF-539 CNS): > 100 µM | TGI (SK-MEL-2 melanoma): > 100 µM | TGI (SK-MEL-28 melanoma): > 100 µM | TGI (SK-MEL-5 melanoma): > 100 µM | TGI (SK-OV-3 ovarian): > 100 µM | TGI (SN12C renal): > 100 µM | TGI (SNB-19 CNS): > 100 µM | TGI (SNB-75 CNS): > 100 µM | TGI (SR leukemia): > 100 µM | TGI (SW-620 colon): > 100 µM | TGI (U251 CNS): > 100 µM | TGI (UACC-257 melanoma): > 100 µM | TGI (UACC-62 melanoma): > 100 µM | TGI (UO-31 renal): > 100 µM | TGI (XF 498 CNS): > 100 µM
